Earlier results in patent publication US20070190117A1 (priority 2003, published 2007).

Conditions: galanthamine as hydrobromide or another pharmacologically acceptable salt

- half life in plasma: approx. 5 h
SMILES: COc1ccc2c3c1O[C@H]1C[C@@H](O)C=C[C@@]31CCN(C)C2 [galanthamine, 4a,5,9,11,12-hexahydro-3-methoxy-11-methyl[6H]-benzofuro-[3a,3,2ef][2]benzazepine-6-ol]
